# Data: PubChem BioAssay AID2060335 (Molecular Pharmacology Branch, DTP, NCI, 2025)
# Tested on: DU-145 multicell spheroids with HUVEC/MSC, viability
# Experiment: Anticancer human tumor DU-145 cell line growth inhibition [IpAb];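 also: spheroids exposed to agents for seven days before measurement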;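 as to viability, T/C: percent of DMSO vehicle control viability so 100% = untreated level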
# Conditions: for IC50: curve of first compound; for viability, T/C: stronger effect = lower value
# Outline: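 Spheroids of 60% malignant cells, 25% HUVEC and 15% MSC were exposed to targeted agents combined with ipatasertib or abemaciclib. Doses started at or near clinical Cmax (10 microM when unknown) and fell in half-log steps.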
smiles,measurement,setting,value
C=CCn1c(=O)c2cnc(Nc3ccc(N4CCN(C)CC4)cc3)nc2n1-c1cccc(C(C)(C)O)n1 + CCN1CCN(Cc2ccc(Nc3ncc(F)c(-c4cc(F)c5nc(C)n(C(C)C)c5c4)n3)nc2)CC1,IC50,second compound 0.01 µM,0.14 µM
same,IC50,second compound 0.0316 µM,0.0883 µM
same,IC50,second compound 0.1 µM,0.0643 µM
same,IC50,second compound 0.316 µM,0.0559 µM
same,IC50,second compound 1 µM,0.0966 µM
same,"viability, T/C","second compound 0.01 µM, first compound 0.0316 µM",85.5%
same,"viability, T/C","second compound 0.01 µM, first compound 0.1 µM",61.3%
same,"viability, T/C","second compound 0.01 µM, first compound 0.316 µM",21.9%
same,"viability, T/C","second compound 0.01 µM, first compound 1 µM",17%
same,"viability, T/C","second compound 0.01 µM, first compound 3.16 µM",10.1%
same,"viability, T/C","second compound 0.01 µM, first compound 10 µM",9.83%
same,"viability, T/C","second compound 0.0316 µM, first compound 0.0316 µM",75.3%
same,"viability, T/C","second compound 0.0316 µM, first compound 0.1 µM",47.6%
same,"viability, T/C","second compound 0.0316 µM, first compound 0.316 µM",21.7%
same,"viability, T/C","second compound 0.0316 µM, first compound 1 µM",16.9%
same,"viability, T/C","second compound 0.0316 µM, first compound 3.16 µM",10.7%
same,"viability, T/C","second compound 0.0316 µM, first compound 10 µM",8.6%
same,"viability, T/C","second compound 0.1 µM, first compound 0.0316 µM",69.7%
same,"viability, T/C","second compound 0.1 µM, first compound 0.1 µM",37%
same,"viability, T/C","second compound 0.1 µM, first compound 0.316 µM",21.9%
same,"viability, T/C","second compound 0.1 µM, first compound 1 µM",16.1%
same,"viability, T/C","second compound 0.1 µM, first compound 3.16 µM",9.64%
same,"viability, T/C","second compound 0.1 µM, first compound 10 µM",9.46%
same,"viability, T/C","second compound 0.316 µM, first compound 0.0316 µM",58.7%
same,"viability, T/C","second compound 0.316 µM, first compound 0.1 µM",40.9%
same,"viability, T/C","second compound 0.316 µM, first compound 0.316 µM",25.2%
same,"viability, T/C","second compound 0.316 µM, first compound 1 µM",14.9%
same,"viability, T/C","second compound 0.316 µM, first compound 3.16 µM",9.9%
same,"viability, T/C","second compound 0.316 µM, first compound 10 µM",10.9%
same,"viability, T/C","second compound 1 µM, first compound 0.0316 µM",57.3%
same,"viability, T/C","second compound 1 µM, first compound 0.1 µM",50.5%
same,"viability, T/C","second compound 1 µM, first compound 0.316 µM",27.1%
same,"viability, T/C","second compound 1 µM, first compound 1 µM",14.2%
same,"viability, T/C","second compound 1 µM, first compound 3.16 µM",7.82%
same,"viability, T/C","second compound 1 µM, first compound 10 µM",8.53%
Cn1cnc2c(F)c(Nc3ccc(Br)cc3Cl)c(C(=O)NOCCO)cc21 + CCN1CCN(Cc2ccc(Nc3ncc(F)c(-c4cc(F)c5nc(C)n(C(C)C)c5c4)n3)nc2)CC1,IC50,second compound 0.01 µM,0.256 µM
same,IC50,second compound 0.0316 µM,0.213 µM
same,IC50,second compound 0.1 µM,0.145 µM
same,IC50,second compound 0.316 µM,0.184 µM
same,IC50,second compound 1 µM,0.0824 µM
same,"viability, T/C","second compound 0.01 µM, first compound 0.00949 µM",80.8%
same,"viability, T/C","second compound 0.01 µM, first compound 0.03 µM",74.8%
same,"viability, T/C","second compound 0.01 µM, first compound 0.0949 µM",56.1%
same,"viability, T/C","second compound 0.01 µM, first compound 0.3 µM",50.7%
same,"viability, T/C","second compound 0.01 µM, first compound 0.949 µM",42.8%
same,"viability, T/C","second compound 0.01 µM, first compound 3 µM",38.6%
same,"viability, T/C","second compound 0.0316 µM, first compound 0.00949 µM",71%
same,"viability, T/C","second compound 0.0316 µM, first compound 0.03 µM",64.5%
same,"viability, T/C","second compound 0.0316 µM, first compound 0.0949 µM",53.5%
same,"viability, T/C","second compound 0.0316 µM, first compound 0.3 µM",46.7%
same,"viability, T/C","second compound 0.0316 µM, first compound 0.949 µM",44.5%
same,"viability, T/C","second compound 0.0316 µM, first compound 3 µM",34.4%
same,"viability, T/C","second compound 0.1 µM, first compound 0.00949 µM",67.4%
same,"viability, T/C","second compound 0.1 µM, first compound 0.03 µM",57.6%
same,"viability, T/C","second compound 0.1 µM, first compound 0.0949 µM",53.8%
same,"viability, T/C","second compound 0.1 µM, first compound 0.3 µM",46.3%
same,"viability, T/C","second compound 0.1 µM, first compound 0.949 µM",39.9%
same,"viability, T/C","second compound 0.1 µM, first compound 3 µM",37.1%
same,"viability, T/C","second compound 0.316 µM, first compound 0.00949 µM",61.5%
same,"viability, T/C","second compound 0.316 µM, first compound 0.03 µM",56.3%
same,"viability, T/C","second compound 0.316 µM, first compound 0.0949 µM",52.8%
same,"viability, T/C","second compound 0.316 µM, first compound 0.3 µM",45.9%
same,"viability, T/C","second compound 0.316 µM, first compound 0.949 µM",47.4%
same,"viability, T/C","second compound 0.316 µM, first compound 3 µM",39.2%
same,"viability, T/C","second compound 1 µM, first compound 0.00949 µM",58.1%
same,"viability, T/C","second compound 1 µM, first compound 0.03 µM",54.1%
same,"viability, T/C","second compound 1 µM, first compound 0.0949 µM",48.8%
same,"viability, T/C","second compound 1 µM, first compound 0.3 µM",44.4%
same,"viability, T/C","second compound 1 µM, first compound 0.949 µM",42.1%
same,"viability, T/C","second compound 1 µM, first compound 3 µM",35%
